Measured values from US11083725B2 (priority 2014, dated 2021).

Test system: NHBE cells
Experiment: Biolog metabolic array: substrate use by NHBE cells with or without CA09 infection
Assay type: cell-based, human
Settings: for Substrate use, 590 nm absorbance normalized to zero hour, 1 hr: Biolog PMM2, 1 hr; for Substrate use, 590 nm absorbance normalized to zero hour, 5 hr: Biolog PMM2, 5 hr; for Substrate use, 590 nm absorbance normalized to zero hour, 7 hr: Biolog PMM2, 7 hr
[1] = Control (uninfected) NHBE cells
[2] = Virus (CA09-infected, MOI 1) NHBE cells
[3] = Virus: CA09-infected NHBE cells, MOI 1, Biolog PMM2
[4] = Virus (CA09-infected NHBE cells, MOI 1)
[5] = Virus (CA09, MOI 1) infected NHBE cells

SMILES: O=C(CO)[C@@H](O)[C@@H](O)[C@H](O)CO [D-Tagatose]
- 590 nm absorbance normalized to zero hour (substrate use), 1 hr [1]: 1.07
- 590 nm absorbance normalized to zero hour (substrate use), 2 hr [1]: 1.01
- 590 nm absorbance normalized to zero hour (substrate use), 3 hr [1]: 0.88
- 590 nm absorbance normalized to zero hour (substrate use), 4 hr [1]: 0.28
- 590 nm absorbance normalized to zero hour (substrate use), 6 hr [1]: 0.49
- 590 nm absorbance normalized to zero hour (substrate use), 8 hr [1]: 0.34
- 590 nm absorbance normalized to zero hour (substrate use), 9 hr [1]: 0.36
- 590 nm absorbance normalized to zero hour (substrate use), 10 hr [1]: 0.37
- 590 nm absorbance normalized to zero hour (substrate use), 11 hr [1]: 0.39
- Substrate use, 590 nm absorbance normalized to zero hour, 1 hr [1]: 1.07
- Substrate use, 590 nm absorbance normalized to zero hour, 5 hr [1]: 0.29
- Substrate use, 590 nm absorbance normalized to zero hour, 7 hr [1]: 0.32
- 590 nm absorbance normalized to zero hour (substrate use), 1 hr [2]: 0.17
- 590 nm absorbance normalized to zero hour (substrate use), 2 hr [2]: 0.24
- 590 nm absorbance normalized to zero hour (substrate use), 3 hr [2]: 0.28
- 590 nm absorbance normalized to zero hour (substrate use), 4 hr [2]: 0.30
- 590 nm absorbance normalized to zero hour (substrate use), 5 hr [2]: 0.36
- 590 nm absorbance normalized to zero hour (substrate use), 6 hr [2]: 0.39
- 590 nm absorbance normalized to zero hour (substrate use), 7 hr [2]: 0.42
- 590 nm absorbance normalized to zero hour (substrate use), 8 hr [2]: 0.44
- 590 nm absorbance normalized to zero hour (substrate use), 9 hr [2]: 0.49
- 590 nm absorbance normalized to zero hour (substrate use), 10 hr [2]: 0.51
- 590 nm absorbance normalized to zero hour (substrate use), 1 hr [3]: 0.17
- 590 nm absorbance normalized to zero hour (substrate use), 2 hr [3]: 0.24
- 590 nm absorbance normalized to zero hour (substrate use), 3 hr [3]: 0.28
- 590 nm absorbance normalized to zero hour (substrate use), 4 hr [3]: 0.30
- 590 nm absorbance normalized to zero hour (substrate use), 5 hr [3]: 0.36
- 590 nm absorbance normalized to zero hour (substrate use), 6 hr [3]: 0.39
- 590 nm absorbance normalized to zero hour (substrate use), 7 hr [3]: 0.42
- 590 nm absorbance normalized to zero hour (substrate use), 8 hr [3]: 0.44
- 590 nm absorbance normalized to zero hour (substrate use), 9 hr [3]: 0.49
- 590 nm absorbance normalized to zero hour (substrate use), 10 hr [3]: 0.51
- 590 nm absorbance normalized to zero hour (substrate use), 11 hr [3]: 0.48

SMILES: OC[C@H]1O[C@H](O[C@H]2O[C@H](CO)[C@@H](O)[C@H](O)[C@H]2O)[C@H](O)[C@@H](O)[C@@H]1O [D-Trehalose]
- 590 nm absorbance normalized to zero hour (substrate use), 0 hr [1]: 1.00
- 590 nm absorbance normalized to zero hour (substrate use), 1 hr [1]: 1.68
- 590 nm absorbance normalized to zero hour (substrate use), 2 hr [1]: 2.24
- 590 nm absorbance normalized to zero hour (substrate use), 3 hr [1]: 2.70
- 590 nm absorbance normalized to zero hour (substrate use), 4 hr [1]: 2.88
- 590 nm absorbance normalized to zero hour (substrate use), 6 hr [1]: 3.69
- 590 nm absorbance normalized to zero hour (substrate use), 8 hr [1]: 4.74
- 590 nm absorbance normalized to zero hour (substrate use), 9 hr [1]: 5.11
- 590 nm absorbance normalized to zero hour (substrate use), 10 hr [1]: 4.09
- 590 nm absorbance normalized to zero hour (substrate use), 11 hr [1]: 4.60
- Substrate use, 590 nm absorbance normalized to zero hour, 0 hr (Control (uninfected) NHBE cells, Biolog PMM2, 0 hr): 1.00
- Substrate use, 590 nm absorbance normalized to zero hour, 1 hr [1]: 1.68
- Substrate use, 590 nm absorbance normalized to zero hour, 5 hr [1]: 3.48
- Substrate use, 590 nm absorbance normalized to zero hour, 7 hr [1]: 4.20
- 590 nm absorbance normalized to zero hour (substrate use), 0 hr [2]: 1.00
- 590 nm absorbance normalized to zero hour (substrate use), 1 hr [2]: 1.66
- 590 nm absorbance normalized to zero hour (substrate use), 2 hr [2]: 2.04
- 590 nm absorbance normalized to zero hour (substrate use), 3 hr [2]: 2.20
- 590 nm absorbance normalized to zero hour (substrate use), 4 hr [2]: 2.27
- 590 nm absorbance normalized to zero hour (substrate use), 5 hr [2]: 2.52
- 590 nm absorbance normalized to zero hour (substrate use), 6 hr [2]: 2.66
- 590 nm absorbance normalized to zero hour (substrate use), 7 hr [2]: 2.79
- 590 nm absorbance normalized to zero hour (substrate use), 8 hr [2]: 2.93
- 590 nm absorbance normalized to zero hour (substrate use), 9 hr [2]: 3.11
- 590 nm absorbance normalized to zero hour (substrate use), 10 hr [2]: 3.25
- 590 nm absorbance normalized to zero hour (substrate use), 11 hr [2]: 3.07
- 590 nm absorbance normalized to zero hour (substrate use), 0 hr [3]: 1.00
- 590 nm absorbance normalized to zero hour (substrate use), 1 hr [3]: 1.66
- 590 nm absorbance normalized to zero hour (substrate use), 2 hr [3]: 2.04
- 590 nm absorbance normalized to zero hour (substrate use), 3 hr [3]: 2.20
- 590 nm absorbance normalized to zero hour (substrate use), 4 hr [3]: 2.27
- 590 nm absorbance normalized to zero hour (substrate use), 5 hr [3]: 2.52
- 590 nm absorbance normalized to zero hour (substrate use), 6 hr [3]: 2.66
- 590 nm absorbance normalized to zero hour (substrate use), 7 hr [3]: 2.79
- 590 nm absorbance normalized to zero hour (substrate use), 8 hr [3]: 2.93
- 590 nm absorbance normalized to zero hour (substrate use), 9 hr [3]: 3.11
- 590 nm absorbance normalized to zero hour (substrate use), 10 hr [3]: 3.25
- 590 nm absorbance normalized to zero hour (substrate use), 11 hr [3]: 3.07

SMILES: OC[C@H]1O[C@@H](OC[C@H]2OC(O)[C@H](O)[C@@H](O)[C@@H]2O)[C@H](O)[C@@H](O)[C@@H]1O (stereo partly shown) [Gentio-biose]
- 590 nm absorbance normalized to zero hour (substrate use), 1 hr [1]: 1.71
- 590 nm absorbance normalized to zero hour (substrate use), 2 hr [1]: 2.34
- 590 nm absorbance normalized to zero hour (substrate use), 3 hr [1]: 2.83
- 590 nm absorbance normalized to zero hour (substrate use), 4 hr [1]: 3.01
- 590 nm absorbance normalized to zero hour (substrate use), 6 hr [1]: 4.46
- 590 nm absorbance normalized to zero hour (substrate use), 8 hr [1]: 4.57
- 590 nm absorbance normalized to zero hour (substrate use), 9 hr [1]: 5.20
- 590 nm absorbance normalized to zero hour (substrate use), 10 hr [1]: 5.59
- 590 nm absorbance normalized to zero hour (substrate use), 11 hr [1]: 5.94
- Substrate use, 590 nm absorbance normalized to zero hour, 1 hr [1]: 1.71
- Substrate use, 590 nm absorbance normalized to zero hour, 5 hr [1]: 3.72
- Substrate use, 590 nm absorbance normalized to zero hour, 7 hr [1]: 4.35
- 590 nm absorbance normalized to zero hour (substrate use), 1 hr [4]: 1.23
- 590 nm absorbance normalized to zero hour (substrate use), 2 hr [4]: 1.38
- 590 nm absorbance normalized to zero hour (substrate use), 3 hr [4]: 1.44
- 590 nm absorbance normalized to zero hour (substrate use), 4 hr [4]: 1.47
- 590 nm absorbance normalized to zero hour (substrate use), 5 hr [4]: 1.55
- 590 nm absorbance normalized to zero hour (substrate use), 6 hr [4]: 1.62
- 590 nm absorbance normalized to zero hour (substrate use), 7 hr [4]: 1.66
- 590 nm absorbance normalized to zero hour (substrate use), 8 hr [4]: 1.72
- 590 nm absorbance normalized to zero hour (substrate use), 9 hr [4]: 1.79
- 590 nm absorbance normalized to zero hour (substrate use), 10 hr [4]: 1.85
- 590 nm absorbance normalized to zero hour (substrate use), 11 hr [4]: 1.99
- 590 nm absorbance normalized to zero hour (substrate use), 1 hr [3]: 1.23
- 590 nm absorbance normalized to zero hour (substrate use), 2 hr [3]: 1.38
- 590 nm absorbance normalized to zero hour (substrate use), 3 hr [3]: 1.44
- 590 nm absorbance normalized to zero hour (substrate use), 4 hr [3]: 1.47
- 590 nm absorbance normalized to zero hour (substrate use), 5 hr [3]: 1.55
- 590 nm absorbance normalized to zero hour (substrate use), 6 hr [3]: 1.62
- 590 nm absorbance normalized to zero hour (substrate use), 7 hr [3]: 1.66
- 590 nm absorbance normalized to zero hour (substrate use), 8 hr [3]: 1.72
- 590 nm absorbance normalized to zero hour (substrate use), 9 hr [3]: 1.79
- 590 nm absorbance normalized to zero hour (substrate use), 10 hr [3]: 1.85
- 590 nm absorbance normalized to zero hour (substrate use), 11 hr [3]: 1.99

SMILES: OCC(O)CO [Glycerol]
- 590 nm absorbance normalized to zero hour (substrate use), 1 hr [1]: 1.36
- 590 nm absorbance normalized to zero hour (substrate use), 2 hr [1]: 1.42
- 590 nm absorbance normalized to zero hour (substrate use), 3 hr [1]: 1.19
- 590 nm absorbance normalized to zero hour (substrate use), 4 hr [1]: 1.18
- 590 nm absorbance normalized to zero hour (substrate use), 6 hr [1]: 0.68
- 590 nm absorbance normalized to zero hour (substrate use), 8 hr [1]: 1.04
- 590 nm absorbance normalized to zero hour (substrate use), 9 hr [1]: 1.08
- 590 nm absorbance normalized to zero hour (substrate use), 10 hr [1]: 1.04
- 590 nm absorbance normalized to zero hour (substrate use), 11 hr [1]: 1.08
- Substrate use, 590 nm absorbance normalized to zero hour, 1 hr [1]: 1.36
- Substrate use, 590 nm absorbance normalized to zero hour, 5 hr [1]: 1.27
- Substrate use, 590 nm absorbance normalized to zero hour, 7 hr [1]: 1.06
- Substrate use, 590 nm absorbance normalized to zero hour, 11 hr (Control (uninfected) NHBE cells, Biolog PMM2, 11 hr): 1.04
- Substrate use, 590 nm absorbance normalized to zero hour, 1 hr [5]: 1.04
- Substrate use, 590 nm absorbance normalized to zero hour, 2 hr (Virus (CA09, MOI 1) infected NHBE cells, Biolog PMM2, 2 hr): 1.04
- Substrate use, 590 nm absorbance normalized to zero hour, 3 hr (Virus (CA09, MOI 1) infected NHBE cells, Biolog PMM2, 3 hr): 1.04
- Substrate use, 590 nm absorbance normalized to zero hour, 4 hr (Virus (CA09, MOI 1) infected NHBE cells, Biolog PMM2, 4 hr): 1.04
- Substrate use, 590 nm absorbance normalized to zero hour, 5 hr [5]: 3.55
- Substrate use, 590 nm absorbance normalized to zero hour, 7 hr [5]: 3.91
- 590 nm absorbance normalized to zero hour (substrate use), 1 hr [2]: 2.05
- 590 nm absorbance normalized to zero hour (substrate use), 2 hr [2]: 2.67
- 590 nm absorbance normalized to zero hour (substrate use), 3 hr [2]: 3.09
- 590 nm absorbance normalized to zero hour (substrate use), 4 hr [2]: 3.24
- 590 nm absorbance normalized to zero hour (substrate use), 6 hr [2]: 3.71
- 590 nm absorbance normalized to zero hour (substrate use), 8 hr [2]: 4.11
- 590 nm absorbance normalized to zero hour (substrate use), 9 hr [2]: 4.51
- 590 nm absorbance normalized to zero hour (substrate use), 10 hr [2]: 4.63
- 590 nm absorbance normalized to zero hour (substrate use), 11 hr [2]: 5.09
